# Key:
# [1] = test system: co-cultures of tumor cells-endothelial cells (C-12210); test: Inhibition/survival in co-cultures of primary human tumor cells and endothelial cells; assay type: cell-based; settings: survival in reference to control, SP 1 μM, Aprepitant 1 μM
# Protocol: To check that the interaction of primary tumor cells extracted directly from human with human vascular endothelial cells, promotes the survival of both cell types, co-cultures were performed microvascular endothelial cells from juvenile foreskins (PromoCell GmbH, Sickingenstraβe 63/65, D-69126 Heidelberg, Germany; reference C-12210) with tumor cells obtained directly from primary human tumors.
# A total of 6 wells containing tumor cells were used as control for survival. Another 6 wells containing tumor cells were cultured with addition of endothelial cells.
# Subsequently, cells were embedded in paraffin for analysis by immunohistochemistry. In order to identify the different cell types and quantity of them [They were labelled with primary antibodies specific for human endothelial cells (anti-CD31), carcinoma cells (Anti-Cytokeratins Spread Spectrum), glioma (Anti-glial fibrillary acidic protein), fibrosarcoma and malignant fibrous histiocytoma (Anti-Smooth Muscle Actin), Ewing sarcoma (Anti-CD99), Melanoma (Anti-HMB45), leukemias and lymphomas (Anti-Common Antigen Leucitario) and myeloma (anti CD 138). All antibodies are distributed by Dako and were used at the same concentration which is supplied (supplied pre-diluted—“ready to use”).
# [2] = test system: fibroblasts of tumors produced by lung carcinoma non small cell human (HCC-44) cells; test: Marker expression (IHC) in fibroblasts of tumor or peritumoral area, mouse model, HCC-44; assay type: in vivo; settings: HCC-44 tumors in mice, 30 mg/kg/day oral, 7 days
# Protocol: The expression on fibroblast cells obtained in the animal model was analyzed by immunohistochemistry, of the above markers: TGF-α, TGF-β1, TGF-β2, TGF-β3, MMP-7, MMP-1 1, MMP-14MP-14. […] This process was realized in mice treated with non-peptide antagonists of NK1 receptor and in untreated animals (control).
# [3] = test system: fibroblasts of tumors produced by human rhabdomyosarcoma tumor line (A-204); test: Marker expression (IHC) in fibroblasts of tumor or peritumoral area, mouse model, A-204; assay type: in vivo; settings: A-204 tumors in mice, 30 mg/kg/day oral, 7 days
# Protocol: In vitro tests conducted in Example 5 are now carried out in an experimental model in mice in vivo. […] Subsequently, the expression in fibroblasts tumoral and peritumoral area of molecular markers associated with progression and maintenance of tumors: TGF-α, TGF-β1, TGF-β2, TGF-β3, MMP-7, MMP-11, MMP-14 were analyzed by immunohistochemistry.
# Were injected with 2×10^7 cells tumors (corresponding, in each case to each of the tumor types as specified in Table 9) in 200 of PBS subcutaneously μl. […] Mice were randomized into two groups when the tumors reached a volume of 75 mm^3 One group was treated with non-peptide receptor antagonists NK1 and the other with placebo 200μ1. […] Tumors and samples of non-neoplastic stromal areas remote from the tumor were halved, formalin fixed (4%) and then were included in paraffin blocks for analysis by immunohistochemistry.
# The expression on fibroblast cells obtained in the animal model was analyzed by immunohistochemistry, of the above markers: TGF-α, TGF-β1, TGF-β2, TGF-β3, MMP-7, MMP-1 1, MMP-14MP-14. Tables 32 to 35 depict the type of label used and the average percentage of fibroblasts present in non-tumor areas, tumor and peritumoral (±SD) which were expressing the marker shown in each of the tumor types developed from of the different cell lines used. This process was realized in mice treated with non-peptide antagonists of NK1 receptor and in untreated animals (control).
# [4] = test system: fibroblasts (PHF) co-cultured with human fibrosarcoma tumor cells (HT-1080); test: Marker expression (IHC) in PHF co-cultured with HT-1080 tumor cells; assay type: cell-based; settings: co-culture with HT-1080; SP 1 μM + antagonist 1 μM; 48 h;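 also: cultures grown in fresh human plasma from a healthy donor, six replicates, value is percent of fibroblasts positive for the marker, compared with fibroblasts cultured without tumor cells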
# Protocol: (§1) All cultures were maintained 48 hours, following which the same cells were included in paraffin blocks for subsequent analysis of the expression of different markers by immunohistochemistry (see Example 1). […] All experiments were carried out sixfold. Analyzed markers in fibroblast cells (stromal cells) were: TGF-α, TGF-β1, TGF-β2, TGF-β3, SPARC, MMP-3, MMP-7, MMP-9, MMP-11, MMP-13 and MMP-14.
# [5] = test system: fibroblasts (PHF) co-cultured with tumor cells, ovarian carcinoma (EFO-27); test: Marker expression (IHC) in PHF co-cultured with EFO-27 tumor cells; assay type: cell-based, human; settings: co-culture with EFO-27; SP 1 μM + antagonist 1 μM; 48 h;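 also: values are the percentage of PHF fibroblasts positive for each marker, cultured in fresh plasma from a healthy human donor, each experiment run in six replicates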
# Protocol: as §1
# [6] = test system: fibroblasts (PHF) co-cultured with tumor cells of lung carcinoma (A-427); test: Marker expression (IHC) in PHF co-cultured with A-427 tumor cells; assay type: cell-based, human; settings: co-culture with A-427 lung carcinoma; SP 1 μM + antagonist 1 μM; 48 h;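 also: cultures grown in human blood plasma from a healthy donor, value is the percentage of fibroblasts positive for each marker, six replicates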
# Protocol: as §1
# [7] = test system: fibroblasts (PHF) co-cultured with tumor cells of human Burkitt lymphoma (CA-46); test: Marker expression (IHC) in PHF co-cultured with CA-46 tumor cells; assay type: cell-based; settings: PHF co-cultured with CA-46 + SP + NK1 antagonist;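 also: percentage of PHF fibroblasts positive for each marker, cultures grown in fresh human plasma from a healthy donor, six replicates, compared with fibroblasts cultured alone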
# Protocol: All cultures were maintained 48 hours, following which the same cells were included in paraffin blocks for subsequent analysis of the expression of different markers by immunohistochemistry (see Example 1). The primary antibodies used to perform immunohistochemical assays and their concentration are detailed in Example 2. All experiments were carried out sixfold. Analyzed markers in fibroblast cells (stromal cells) were: TGF-α, TGF-β1, TGF-β2, TGF-β3, SPARC, MMP-3, MMP-7, MMP-9, MMP-11, MMP-13 and MMP-14.
# [8] = Carcinoma of lung, (Small cell carcinoma in Table 36)
# [9] = Carcinoma of lung, Non Small Cell Carcinoma in Table 36
# [10] = Carcinoma of thyroid, (Follicular Carcinoma in Table 36)
# [11] = Carcinoma of thyroid, (Papillary Carcinoma in Table 36)
smiles,measurement,setting,value
C[C@@H](O[C@H]1OCCN(Cc2n[nH]c(=O)[nH]2)[C@H]1c1ccc(F)cc1)c1cc(C(F)(F)F)cc(C(F)(F)F)c1 [Aprepitant],Endothelial cells co-cultured with tumor cells + SP + Aprepitant,[1]; Carcinoma of Colon,57 ± 3%
same,Tumor cells co-cultured with endothelial cells + SP + Aprepitant,[1]; Carcinoma of Colon,61 ± 3%
same,Endothelial cells co-cultured with tumor cells + SP + Aprepitant,[1]; Carcinoma of Pancreas,52 ± 4%
same,Tumor cells co-cultured with endothelial cells + SP + Aprepitant,[1]; Carcinoma of Pancreas,46 ± 6%
same,Endothelial cells co-cultured with tumor cells + SP + Aprepitant,[1]; Carcinoma of breast,56 ± 6%
same,Tumor cells co-cultured with endothelial cells + SP + Aprepitant,[1]; Carcinoma of breast,56 ± 3%
same,Endothelial cells co-cultured with tumor cells + SP + Aprepitant,[1]; Carcinoma of cervix,45 ± 3%
same,Tumor cells co-cultured with endothelial cells + SP + Aprepitant,[1]; Carcinoma of cervix,46 ± 3%
same,Endothelial cells co-cultured with tumor cells + SP + Aprepitant,[1]; Carcinoma of endometrial,57 ± 4%
same,Tumor cells co-cultured with endothelial cells + SP + Aprepitant,[1]; Carcinoma of endometrial,49 ± 3%
same,Endothelial cells co-cultured with tumor cells + SP + Aprepitant,[1]; [8],46 ± 7%
same,Tumor cells co-cultured with endothelial cells + SP + Aprepitant,[1]; [8],63 ± 3%
same,Endothelial cells co-cultured with tumor cells + SP + Aprepitant,[1]; [9],43 ± 4%
same,Tumor cells co-cultured with endothelial cells + SP + Aprepitant,[1]; [9],65 ± 4%
same,Endothelial cells co-cultured with tumor cells + SP + Aprepitant,[1]; Carcinoma of ovarian,49 ± 5%
same,Tumor cells co-cultured with endothelial cells + SP + Aprepitant,[1]; Carcinoma of ovarian,54 ± 4%
same,Endothelial cells co-cultured with tumor cells + SP + Aprepitant,[1]; Carcinoma of prostate,54 ± 4%
same,Tumor cells co-cultured with endothelial cells + SP + Aprepitant,[1]; Carcinoma of prostate,47 ± 5%
same,Endothelial cells co-cultured with tumor cells + SP + Aprepitant,[1]; Carcinoma of stomach,65 ± 2%
same,Tumor cells co-cultured with endothelial cells + SP + Aprepitant,[1]; Carcinoma of stomach,54 ± 5%
same,Endothelial cells co-cultured with tumor cells + SP + Aprepitant,[1]; [10],45 ± 3%
same,Tumor cells co-cultured with endothelial cells + SP + Aprepitant,[1]; [10],46 ± 6%
same,Endothelial cells co-cultured with tumor cells + SP + Aprepitant,[1]; [11],56 ± 6%
same,Tumor cells co-cultured with endothelial cells + SP + Aprepitant,[1]; [11],56 ± 4%
same,Endothelial cells co-cultured with tumor cells + SP + Aprepitant,[1]; Fibrosarcoma,45 ± 6%
same,Tumor cells co-cultured with endothelial cells + SP + Aprepitant,[1]; Fibrosarcoma,55 ± 6%
same,Endothelial cells co-cultured with tumor cells + SP + Aprepitant,[1]; Glioma,56 ± 5%
same,Tumor cells co-cultured with endothelial cells + SP + Aprepitant,[1]; Glioma,49 ± 4%
same,Endothelial cells co-cultured with tumor cells + SP + Aprepitant,[1]; Hodgkin's Lymphoma,48 ± 4%
same,Tumor cells co-cultured with endothelial cells + SP + Aprepitant,[1]; Hodgkin's Lymphoma,74 ± 6%
same,Endothelial cells co-cultured with tumor cells + SP + Aprepitant,[1]; Leukemia B,46 ± 5%
same,Tumor cells co-cultured with endothelial cells + SP + Aprepitant,[1]; Leukemia B,54 ± 6%
same,Endothelial cells co-cultured with tumor cells + SP + Aprepitant,[1]; Leukemia T,56 ± 6%
same,Tumor cells co-cultured with endothelial cells + SP + Aprepitant,[1]; Leukemia T,56 ± 5%
same,Endothelial cells co-cultured with tumor cells + SP + Aprepitant,[1]; Malignant fibrous histiocytoma,56 ± 6%
same,Tumor cells co-cultured with endothelial cells + SP + Aprepitant,[1]; Malignant fibrous histiocytoma,44 ± 5%
same,Endothelial cells co-cultured with tumor cells + SP + Aprepitant,[1]; Melanoma,56 ± 6%
same,Tumor cells co-cultured with endothelial cells + SP + Aprepitant,[1]; Melanoma,46 ± 5%
same,Endothelial cells co-cultured with tumor cells + SP + Aprepitant,[1]; Myeloma,54 ± 8%
same,Tumor cells co-cultured with endothelial cells + SP + Aprepitant,[1]; Myeloma,64 ± 3%
same,Endothelial cells co-cultured with tumor cells + SP + Aprepitant,[1]; Neuroblastoma,49 ± 4%
same,Tumor cells co-cultured with endothelial cells + SP + Aprepitant,[1]; Neuroblastoma,55 ± 6%
same,Endothelial cells co-cultured with tumor cells + SP + Aprepitant,[1]; Non-Hodgkin's Lymphoma B,67 ± 5%
same,Tumor cells co-cultured with endothelial cells + SP + Aprepitant,[1]; Non-Hodgkin's Lymphoma B,49 ± 6%
same,Endothelial cells co-cultured with tumor cells + SP + Aprepitant,[1]; Non-Hodgkin's Lymphoma T,49 ± 4%
same,Tumor cells co-cultured with endothelial cells + SP + Aprepitant,[1]; Non-Hodgkin's Lymphoma T,83 ± 8%
same,Endothelial cells co-cultured with tumor cells + SP + Aprepitant,[1]; Renal carcinoma,56 ± 2%
same,Tumor cells co-cultured with endothelial cells + SP + Aprepitant,[1]; Renal carcinoma,53 ± 3%
same,Endothelial cells co-cultured with tumor cells + SP + Aprepitant,[1]; Sarcoma of Ewing,45 ± 5%
same,Tumor cells co-cultured with endothelial cells + SP + Aprepitant,[1]; Sarcoma of Ewing,45 ± 7%
same,fibroblasts expressing MMP-7,[2],0%
same,fibroblasts expressing MMP-11,[2],0%
same,fibroblasts expressing MMP-14,[2],0%
same,fibroblasts expressing TGF-α,[2],0%
same,fibroblasts expressing TGF-β 1,[2],0%
same,fibroblasts expressing TGF-β 2,[2],0%
same,fibroblasts expressing TGF-β 3,[2],0%
same,fibroblasts expressing MMP-7,[3],0%
same,fibroblasts expressing MMP-11,[3],0%
same,fibroblasts expressing MMP-14,[3],0%
same,fibroblasts expressing TGF-α,[3],0%
same,fibroblasts expressing TGF-β 1,[3],0%
same,fibroblasts expressing TGF-β 2,[3],0%
same,fibroblasts expressing TGF-β 3,[3],0%
same,PHF cells expressing MMP-3,[4],0%
same,PHF cells expressing MMP-7,[4],0%
same,PHF cells expressing MMP-9,[4],0%
same,PHF cells expressing MMP-11,[4],0%
same,PHF cells expressing MMP-13,[4],0%
same,PHF cells expressing MMP-14,[4],0%
same,PHF cells expressing SPARC,[4],0%
same,PHF cells expressing TGF-α,[4],0%
same,PHF cells expressing TGF-β1,[4],0%
same,PHF cells expressing TGF-β2,[4],0%
same,PHF cells expressing TGF-β3,[4],0%
same,PHF cells expressing MMP-3,[5],0%
same,PHF cells expressing MMP-7,[5],0%
same,PHF cells expressing MMP-9,[5],0%
same,PHF cells expressing MMP-11,[5],0%
same,PHF cells expressing MMP-13,[5],0%
same,PHF cells expressing MMP-14,[5],0%
same,PHF cells expressing SPARC,[5],0%
same,PHF cells expressing TGF-α,[5],0%
same,PHF cells expressing TGF-β1,[5],0%
same,PHF cells expressing TGF-β2,[5],0%
same,PHF cells expressing TGF-β3,[5],0%
same,PHF cells expressing MMP-3,[6],0%
same,PHF cells expressing MMP-7,[6],0%
same,PHF cells expressing MMP-9,[6],0%
same,PHF cells expressing MMP-11,[6],0%
same,PHF cells expressing MMP-13,[6],0%
same,PHF cells expressing MMP-14,[6],0%
same,PHF cells expressing SPARC,[6],0%
same,PHF cells expressing TGF-α,[6],0%
same,PHF cells expressing TGF-β1,[6],0%
same,PHF cells expressing TGF-β2,[6],0%
same,PHF cells expressing TGF-β3,[6],0%
same,cells expressing MMP-3,[7],0%
same,cells expressing MMP-7,[7],0%
same,cells expressing MMP-9,[7],0%
same,cells expressing MMP-11,[7],0%
same,cells expressing MMP-13,[7],0%
same,cells expressing MMP-14,[7],0%
same,cells expressing SPARC,[7],0%
same,cells expressing TGF-α,[7],0%
same,cells expressing TGF-β1,[7],0%
same,cells expressing TGF-β2,[7],0%
same,cells expressing TGF-β3,[7],0%
